Target: human MGL from HeLa cells (Homo sapiens (Human), UniProt Q99685)
Test: MGL in vitro activity assay: cleavage of [glycerol-1,3-3H]-oleyl glycerol, activated carbon filtration
Format: biochemical
Details: 300 nM [Glycerol-1,3-3H]-oleyl glycerol, endogenously expressed MGL from HeLa cells, one hour incubation
Summary of the method: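 Endogenous human MGL from HeLa cells or homogenates was incubated with compound and 300 nM [glycerol-1,3-3H]-oleyl glycerol for one hour. Released [3H]-glycerol passing an activated carbon filter was counted as the measure of activity. Screening used 10 μM compound, with IC50 top concentration set empirically.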

Sequence of human MGL from HeLa cells (Q99685 whole entry): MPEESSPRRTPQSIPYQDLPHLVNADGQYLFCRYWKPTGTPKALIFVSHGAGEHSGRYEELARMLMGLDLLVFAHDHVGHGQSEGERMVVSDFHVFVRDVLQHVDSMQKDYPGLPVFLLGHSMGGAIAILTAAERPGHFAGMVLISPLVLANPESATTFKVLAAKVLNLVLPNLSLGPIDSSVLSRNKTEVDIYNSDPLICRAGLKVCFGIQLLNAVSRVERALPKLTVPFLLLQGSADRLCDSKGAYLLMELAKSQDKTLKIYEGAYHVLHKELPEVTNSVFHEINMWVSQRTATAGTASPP

| IC50 | SMILES |
| --- | --- |
| 16 nM | C[C@H]1c2nn(C)c(-c3cc(C(F)(F)F)nn3C)c2CCN1C(=O)c1cccc2c1OCCC2 [Example 54, (S)-Chroman-8-yl(2,7-dimethyl-3-(1-methyl-3-(trifluoromethyl)-1H-pyrazol-5-yl)-2,4,5,7-tetrahydro-6H-pyrazolo[3,4-c]pyridin-6-yl)methanone] |
| 110 nM | C[C@H]1c2nn(C)c(-c3cc(C(F)(F)F)nn3C)c2CCN1C(=O)c1ccc2c(c1)OCCC2 [Example 55, (S)-Chroman-7-yl(2,7-dimethyl-3-(1-methyl-3-(trifluoromethyl)-1H-pyrazol-5-yl)-2,4,5,7-tetrahydro-6H-pyrazolo[3,4-c]pyridin-6-yl)methanone] |
| 26 nM | C[C@H]1c2nn(C)c(-c3cc(C(F)(F)F)nn3C)c2CCN1C(=O)c1ccc2ncsc2c1 [Example 56, (S)-Benzo[d]thiazol-6-yl(2,7-dimethyl-3-(1-methyl-3-(trifluoromethyl)-1H-pyrazol-5-yl)-2,4,5,7-tetrahydro-6H-pyrazolo[3,4-c]pyridin-6-yl)methanone] |
| 22 nM | C[C@H]1c2nn(C)c(-c3cc(C(F)(F)F)nn3C)c2CCN1C(=O)c1cccc2ncsc12 [Example 57, (S)-Benzo[d]thiazol-7-yl(2,7-dimethyl-3-(1-methyl-3-(trifluoromethyl)-1H-pyrazol-5-yl)-2,4,5,7-tetrahydro-6H-pyrazolo[3,4-c]pyridin-6-yl)methanone] |
| 55 nM | Cc1nc2ccc(C(=O)N3CCc4c(nn(C)c4-c4cc(C(F)(F)F)nn4C)[C@@H]3C)cc2s1 [Example 58, (S)-(2,7-Dimethyl-3-(1-methyl-3-(trifluoromethyl)-1H-pyrazol-5-yl)-2,4,5,7-tetrahydro-6H-pyrazolo[3,4-c]pyridin-6-yl)(2-methylbenzo[d]thiazol-6-yl)methanone] |
| 2960 nM | C[C@H]1c2nn(C)c(-c3cnn(C)c3C(F)(F)F)c2CCN1C(=O)c1ccc2ncsc2c1 [Example 59, (S)-Benzo[d]thiazol-6-yl(2,7-dimethyl-3-(1-methyl-5-(trifluoromethyl)-1H-pyrazol-4-yl)-2,4,5,7-tetrahydro-6H-pyrazolo[3,4-c]pyridin-6-yl)methanone] |
| 4250 nM | COc1nccc(C(=O)N2CCc3c(nn(C)c3-c3cnn(C)c3C(F)(F)F)[C@@H]2C)c1C [Example 60, (S)-(2,7-Dimethyl-3-(1-methyl-5-(trifluoromethyl)-1H-pyrazol-4-yl)-2,4,5,7-tetrahydro-6H-pyrazolo[3,4-c]pyridin-6-yl)(2-methoxy-3-methylpyridin-4-yl)methanone] |
| 7180 nM | C[C@H]1c2nn(C)c(-c3cn(C)nc3C(F)(F)F)c2CCN1C(=O)c1ccc2c(c1)OCCC2 [Example 61, (S)-Chroman-7-yl(2,7-dimethyl-3-(1-methyl-3-(trifluoromethyl)-1H-pyrazol-4-yl)-2,4,5,7-tetrahydro-6H-pyrazolo[3,4-c]pyridin-6-yl)methanone] |
| 1940 nM | C[C@H]1c2nn(C)c(-c3cnn(C)c3)c2CCN1C(=O)c1ccc2ncccc2c1 [Example 62, (S)-(2,7-Dimethyl-3-(1-methyl-1H-pyrazol-4-yl)-2,4,5,7-tetrahydro-6H-pyrazolo[3,4-c]pyridin-6-yl)(quinolin-6-yl)methanone] |
| 63 nM | C[C@H]1c2nn(C)c(-c3cc(C(F)(F)F)n(C)n3)c2CCN1C(=O)c1ccc2ncccc2c1 [Example 63, (S)-(2,7-Dimethyl-3-(1-methyl-5-(trifluoromethyl)-1H-pyrazol-3-yl)-2,4,5,7-tetrahydro-6H-pyrazolo[3,4-c]pyridin-6-yl)(quinolin-6-yl)methanone] |
| 79 nM | C[C@H]1c2nn(C)c(-c3cnn(C(F)(F)F)c3)c2CCN1C(=O)c1ccc2ncccc2c1 [Example 64, (S)-(2,7-Dimethyl-3-(1-(trifluoromethyl)-1H-pyrazol-4-yl)-2,4,5,7-tetrahydro-6H-pyrazolo[3,4-c]pyridin-6-yl)(quinolin-6-yl)methanone] |
| 39 nM | C[C@H]1c2nn(C)c(-c3cc(C(F)(F)F)nn3C)c2CCN1C(=O)c1ccc2ncccc2c1 [Example 65, (S)-(2,7-Dimethyl-3-(1-methyl-3-(trifluoromethyl)-1H-pyrazol-5-yl)-2,4,5,7-tetrahydro-6H-pyrazolo[3,4-c]pyridin-6-yl)(quinolin-6-yl)methanone] |
| 4000 nM | CCn1ccc(-c2c3c(nn2C)[C@H](C)N(C(=O)c2ccc4ncccc4c2)CC3)n1 [Example 66, (S)-(3-(1-Ethyl-1H-pyrazol-3-yl)-2,7-dimethyl-2,4,5,7-tetrahydro-6H-pyrazolo[3,4-c]pyridin-6-yl)(quinolin-6-yl)methanone] |
| 1340 nM | C[C@H]1c2nn(C)c(-c3ccn(C(F)F)n3)c2CCN1C(=O)c1ccc2ncccc2c1 [Example 67, (S)-(3-(1-(Difluoromethyl)-1H-pyrazol-3-yl)-2,7-dimethyl-2,4,5,7-tetrahydro-6H-pyrazolo[3,4-c]pyridin-6-yl)(quinolin-6-yl)methanone] |
| 4200 nM | C[C@H]1c2nn(C)c(-c3ccnn3C3CC3)c2CCN1C(=O)c1ccc2ncccc2c1 [Example 68, (S)-(3-(1-Cyclopropyl-1H-pyrazol-5-yl)-2,7-dimethyl-2,4,5,7-tetrahydro-6H-pyrazolo[3,4-c]pyridin-6-yl)(quinolin-6-yl)methanone] |
| 89 nM | C[C@H]1c2nn(C)c(-c3cnn(C(F)F)c3)c2CCN1C(=O)c1ccc2ncccc2c1 [Example 69, (S)-(3-(1-(Difluoromethyl)-1H-pyrazol-4-yl)-2,7-dimethyl-2,4,5,7-tetrahydro-6H-pyrazolo[3,4-c]pyridin-6-yl)(quinolin-6-yl)methanone] |
| 1230 nM | C[C@H]1c2nn(C)c(-c3cnn(-c4ccccn4)c3)c2CCN1C(=O)c1ccc2ncccc2c1 [Example 70, (S)-(2,7-Dimethyl-3-(1-(pyridin-2-yl)-1H-pyrazol-4-yl)-2,4,5,7-tetrahydro-6H-pyrazolo[3,4-c]pyridin-6-yl)(quinolin-6-yl)methanone] |
| 7300 nM | C[C@H]1c2nn(C)c(-c3ccnn3CC3CC3)c2CCN1C(=O)c1ccc2ncccc2c1 [Example 71, (S)-(3-(1-(Cyclopropylmethyl)-1H-pyrazol-5-yl)-2,7-dimethyl-2,4,5,7-tetrahydro-6H-pyrazolo[3,4-c]pyridin-6-yl)(quinolin-6-yl)methanone] |

| SMILES | IC50 |
| --- | --- |
| CCn1nc(C(F)(F)F)cc1-c1c2c(nn1C)[C@@H]1CCC[C@H](C2)N1C(=O)c1cccc(C)c1 [Example 78, ((5R,9S)-3-(1-Ethyl-3-(trifluoromethyl)-1H-pyrazol-5-yl)-2-methyl-4,5,6,7,8,9-hexahydro-2H-5,9-epiminocycloocta[c]pyrazol-10-yl)(m-tolyl)methanone] | 160 nM |
| COc1cccc(C(=O)N2[C@@H]3CCC[C@H]2c2nn(C)c(-c4cc(C(F)(F)F)n(C)n4)c2C3)c1C [Example 79, (3-Methoxy-2-methylphenyl)((5R,9S)-2-methyl-3-(1-methyl-5-(trifluoromethyl)-1H-pyrazol-3-yl)-4,5,6,7,8,9-hexahydro-2H-5,9-epiminocycloocta[c]pyrazol-10-yl)methanone] | 16 nM |
| Cn1nc(C(F)(F)F)cc1-c1c2c(nn1C)[C@@H]1CCC[C@H](C2)N1C(=O)c1ccc2ncccc2c1 [Example 80, ((5R,9S)-2-Methyl-3-(1-methyl-3-(trifluoromethyl)-1H-pyrazol-5-yl)-4,5,6,7,8,9-hexahydro-2H-5,9-epiminocycloocta[c]pyrazol-10-yl)(quinolin-6-yl)methanone] | 22 nM |
| Cn1nc(C(F)(F)F)cc1-c1c2c(nn1C)[C@@H]1CCC[C@H](C2)N1C(=O)c1n[nH]c2ncc(F)cc12 [Example 81, (5-Fluoro-1H-pyrazolo[3,4-b]pyridin-3-yl)((5R,9S)-2-methyl-3-(1-methyl-3-(trifluoromethyl)-1H-pyrazol-5-yl)-4,5,6,7,8,9-hexahydro-2H-5,9-epiminocycloocta[c]pyrazol-10-yl)methanone] | 100 nM |
| Cc1ccc2c(C(=O)N3[C@@H]4CCC[C@H]3c3nn(C)c(-c5cc(C(F)(F)F)nn5C)c3C4)nccc2n1 [Example 82, (2-Methyl-1,6-naphthyridin-5-yl)((5R,9S)-2-methyl-3-(1-methyl-3-(trifluoromethyl)-1H-pyrazol-5-yl)-4,5,6,7,8,9-hexahydro-2H-5,9-epiminocycloocta[c]pyrazol-10-yl)methanone] | 74 nM |
| Cn1nc(C(F)(F)F)cc1-c1c2c(nn1C)[C@@H]1CCC[C@H](C2)N1C(=O)c1cnc2cccc(F)c2c1 [Example 83, (5-Fluoroquinolin-3-yl)((5R,9S)-2-methyl-3-(1-methyl-3-(trifluoromethyl)-1H-pyrazol-5-yl)-4,5,6,7,8,9-hexahydro-2H-5,9-epiminocycloocta[c]pyrazol-10-yl)methanone] | 40 nM |
| Cn1nc(C(F)(F)F)cc1-c1c2c(nn1C)[C@@H]1CCC[C@H](C2)N1C(=O)c1noc2ccccc12 [Example 84, Benzo[d]isoxazol-3-yl((5R,9S)-2-methyl-3-(1-methyl-3-(trifluoromethyl)-1H-pyrazol-5-yl)-4,5,6,7,8,9-hexahydro-2H-5,9-epiminocycloocta[c]pyrazol-10-yl)methanone] | 5.1 nM |
| Cn1nc(C(F)(F)F)cc1-c1c2c(nn1C)[C@@H]1CCC[C@H](C2)N1C(=O)c1nn(C)c2ncccc12 [Example 85, (1-Methyl-1H-pyrazolo[3,4-b]pyridin-3-yl)((5R,9S)-2-methyl-3-(1-methyl-3-(trifluoromethyl)-1H-pyrazol-5-yl)-4,5,6,7,8,9-hexahydro-2H-5,9-epiminocycloocta[c]pyrazol-10-yl)methanone] | 64 nM |
| Cn1nc(C(F)(F)F)cc1-c1c2c(nn1C)[C@@H]1CCC[C@H](C2)N1C(=O)c1nn(C)c2ccc(F)cc12 [Example 86, (5-Fluoro-1-methyl-1H-indazol-3-yl)((5R,9S)-2-methyl-3-(1-methyl-3-(trifluoromethyl)-1H-pyrazol-5-yl)-4,5,6,7,8,9-hexahydro-2H-5,9-epiminocycloocta[c]pyrazol-10-yl)methanone] | 18 nM |
